Here are results for eight compounds from patent US5290796A, “Substituted 3-piperidinealkanamines and alkanamides and compositions and method of use thereof” (Sterling Winthrop Inc., priority 1992, dated 1994).

Assay [1] has as its target T1, sigma receptors (Cavia porcellus, UniProt Q60492).
T1 construct: Brain tissue was prepared from male Hartley guinea pigs; tissue Hazelton Labs; host or cells: brain membranes of male Hartley guinea pigs
In words: sigma receptor binding, [^3 H](+)-pentazocine. Set-up: species or system guinea pig. The conditions noted are these: approximately 0.5 nM radioligand, 37° C., 150 min; for inhibition at 10 µM: percent (%) inhibition of binding at 10 μM, guinea pig brain membranes; for Ki: mean of at least two separate determinations performed in triplicate. How it is done:
(§1) Brain tissue was prepared from male Hartley guinea pigs (Hazelton Labs, Denver, Pa.) which were anesthetized with CO2 and sacrificed by decapitation. All animal care and use procedures were in accord with the "Guide for the Care and Use of Laboratory Animals" (NIH Publ. No. 86-23, 1985). Homogenization was performed in 10 volumes (wt/vol) of 0.32M sucrose with a Brinkmann Polytron at setting 5, 30 sec. The homogenate was centrifuged at 900 x g for 10 min at 4° C., and the supernatant was collected and centrifuged at 22,000 x g for 20 min at 4° C. The pellet was resuspended in 10 volumes of Tris-HCl buffer (50 mM, pH 7.4), incubated at 37° C. for 30 min, and centrifuged at 22,000 x g for 20 min at 4° C. Following this, the pellet was resuspended in Tris buffer and frozen in 5-10 mL aliquots corresponding to a tissue concentration of 100 mg/mL, at -70° C. Binding characteristics of the membranes were stable for at least one month when stored at -70° C.
On the day of the assay, membrane aliquots were thawed, resuspended in fresh Tris-HCl buffer and stored on ice until use. Each assay tube contained 100 μL of [^3 H]-(+)-pentazocine at a final concentration of approximately 0.5 nM or 100 μL of [^3 H]di(2-tolyl)guanidine (DTG) at a final concentration of approximately 4 nM, 100 μL of various concentrations of the compounds of interest, 500 μL of the tissue suspension and 300 μL of buffer to a final assay volume of 1 mL and a final tissue concentration of approximately 8 mg/tube, corresponding to approximately 0.15 mg protein/tube. Non-specific binding was defined by addition of a final concentration of 1 μM haloperidol to blank tubes for [^3 H](+)-pentazocine assay or by addition of a final concentration of 10 μM haloperidol to blank tubes for [^3 H]DTG assay. All tubes were incubated at 37° C. for 150 min in the [^3 H](+)-pentazocine assay or at 25° C. for 90 min in the [^3 H]DTG assay before termination of the reaction by rapid filtration over Whatman GF/B glass fiber filters that were presoaked in a solution of 0.5% polyethyleneimine for at least 1 hr prior to use. Filters were washed with three 4 ml volumes of cold Tris-HCl buffer.
Following addition of scintillation cocktail, samples were allowed to equilibrate for at least 4 hr. The amount of bound radioactivity was determined by liquid scintillation spectrometry using a Beckman LS 5000 TA liquid scintillation counter with an efficiency for tritium of approximately 60%. The results are reported as a percent (%) inhibition of binding at 10 μM.
(§2) Scatchard parameters and inhibition constants (Ki values) for the binding of test compounds were also calculated using the EBDA/LIGAND program (McPherson, J Pharmacol. Meth. 1985, 14, 213-228), purchased from Elsevier/Biosoft, Inc. The Ki values are expressed as the mean of at least two separate determinations performed in triplicate.

The subject of assay [2] is sigma receptors. In words: sigma receptor binding, [^3 H]di(2-tolyl)guanidine (DTG). Also noted: species or system guinea pig. The conditions noted are these: approximately 4 nM radioligand, 25° C., 90 min. How it is done: as §1, with “Following this, the pellet was resuspended in Tris buffer and frozen in 5-10 mL aliquots corresponding to a tissue concentration of 100 mg/mL, at -70° C. Binding characteristics of the membranes were stable for at least one month when stored at -70° C.” left out
Following addition of scintillation cocktail, samples were allowed to equilibrate for at least 4 hr. The amount of bound radioactivity was determined by liquid scintillation spectrometry using a Beckman LS 5000 TA liquid scintillation counter with an efficiency for tritium of approximately 60%. […]
as §2

T1 sequence (Q60492 whole entry): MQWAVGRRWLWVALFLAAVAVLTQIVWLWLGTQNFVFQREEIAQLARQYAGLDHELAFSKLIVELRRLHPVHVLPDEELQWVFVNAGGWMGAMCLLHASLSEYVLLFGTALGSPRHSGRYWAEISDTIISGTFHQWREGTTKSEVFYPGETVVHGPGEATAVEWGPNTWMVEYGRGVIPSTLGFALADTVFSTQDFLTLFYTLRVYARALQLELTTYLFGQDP

Take `C[C@@H]1CCN(Cc2ccccc2)[C@@H](C)[C@]1(C)CCN` (relative stereo) [Example 2b, 2,3,4-trimethyl-1-(phenylmethyl)-3-piperidineethanamine]: at 10 µM the inhibition on sigma receptors [1] was 83%.

As for `C[C@@H]1CCN(C)[C@@H](C)[C@]1(C)CCN(C)C` (relative stereo) [Example 4, N,N-1,2,3,4-hexamethyl-3-piperidineethanamine], on sigma receptors [1], the affinity, expressed as Ki, was 23.9 µM. For the same compound, the “[^3 H]DTG Percent Inhibition” value in the assay on sigma receptors [2] (percent (%) inhibition of binding at 10 μM, guinea pig brain membranes) is 20%.

Consider `CCOC(=O)NCC[C@]1(C)[C@H](C)CCN(C)[C@H]1C` (relative stereo) [Example 6, ethyl-2-(1,2,3,4-tetramethyl-3-piperidinyl)ethyl carbamate], for which, on sigma receptors [1], the inhibition (as a rule, how much of the control response was suppressed) at 10 µM amounted to 69%.

`C[C@@H]1CCN(C)[C@@H](C)[C@]1(C)CCNC1CCCC1` (relative stereo) [Example 1c, N-cyclopentyl-1,2,3,4-tetramethyl-3-piperidineethanamine] displayed an inhibition at 10 µM on sigma receptors [1] of 57%.

At sigma receptors [1], `C[C@@H]1CCN(C)[C@@H](C)[C@]1(C)CCN(C)C1CCCC1` (relative stereo) [Example 3, N-cyclopentyl-N-1,2,3,4-pentamethyl-3-piperidineethanamine] registered an inhibition at 10 µM of 90%.

As to `C[C@@H]1CCN(C)[C@@H](C)[C@]1(C)CCNC(=O)c1ccsc1` (relative stereo) [Example 5, N-[2-(1,2,3,4-tetramethyl-3-piperidinyl)-ethyl]-3-thiophenecarboxamide], the inhibition at 10 µM on sigma receptors [1] was 79%.

For the compound `C[C@@H]1CCN(C)[C@@H](C)[C@]1(C)CCN1CCCC1` (relative stereo) [Example 10, 1,2,3,4-tetramethyl-3-[2-(1-pyrrolidinyl)ethyl]piperidine], the Ki – broadly, a measure of affinity in units of concentration, obtained from inhibition or displacement – at sigma receptors [1] was found to be 5.98 µM; on sigma receptors [2] (mean of at least two separate determinations performed in triplicate), 7.51 µM.

Consider `C[C@@H]1CCN(C)[C@@H](C)[C@]1(C)CCN(C)C(=O)Cc1ccc(Cl)c(Cl)c1` (relative stereo) [Example 7b, 3,4-dichloro-N-methyl-N-[2-(1,2,3,4-tetramethyl-3-piperidinyl)ethyl]benzeneacetamide], for which testing at 10 µM at sigma receptors [1] gave an inhibition of 94%.
